In US20220024891A1 (The Board of Regents of the University of Texas System, priority 2018, published 2022):

Columns and labels:
DLD1 tumors = test: Xenograft mouse model, DLD1 tumors; assay type: in vivo; details: nude mice, 40 mg/kg intraperitoneally twice daily for 18 days
[1] = test system: colorectal tumors in CPC;Apc mice; test: Anti-tumor effects in CPC;Apc mice; assay type: in vivo, mouse; details: 90 days' treatment
Experimental: These mice carry a CDX2P-NLS Cre recombinase transgene and a loxP-targeted Apc allele that deletes exon 14, leading to a frame shift at codon 580 and a truncated APC protein. […] Weights were measured every 15 days over the treatment period. These studies were performed according to the guidelines of the UT Southwestern Institutional Animal Care and Use Committee.

DLD-1 cells = test: Sensitivity of DLD-1 versus HCT-116 cells to EBP inhibitors; assay type: cell-based, human; details: varying doses

Structure (SMILES)	toxicity and body weights (DLD1 tumors)	body weight over treatment [1]	selective sensitivity of DLD-1 versus HCT-116 cells (DLD-1 cells)
COc1ccc(S(=O)(=O)N2CCC(N3CCC(C)CC3)CC2)cc1 [TASIN-1]	no overt toxicity and no statistically significant differences were observed in the body weights	gained weight to a level similar to WT mice	
CC(C(O)c1ccc(O)cc1)N1CCC(Cc2ccccc2)CC1 (stereo not drawn) [Ifenprodil, ifenprodil]			selectively sensitive
